Some test systems named below: T-47D breast; BT-549 breast; HCT-116 colon; SNB-19 CNS; RXF 393 renal; SF-268 CNS; HCT-15 colon; EKVX NSCLC; UACC-257 melanoma; SF-295 CNS.
Holding throughout (assay): NCI anticancer screen, dose series, 48 h

Where “and” joins values, the source holds several entries; their conditions need not be identical. Equal entries are not always repeated.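 These data come from cells grown in 96-well plates and exposed to compound for 48 hours at five concentrations. The concentration for 50% growth inhibition is given as GI50. TGI is the concentration that stops growth completely.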

For the compound `O=C1c2cccc(NCCCNCCO)c2C(=O)c2cccc(NCCCNCCO)c21`, the TGI is 8.89 µM in the assay with T-47D breast; 4.21 µM in the assay on BT-549 breast; 4.9 µM in the assay with HCT-116 colon; 5.58 µM in the assay on SNB-19 CNS; 5.54 µM and 5.82 µM in the assay with RXF 393 renal; 2.82 µM and 4.69 µM in the assay on SF-268 CNS. Besides, the TGI was 19.8 µM and 23.3 µM with HCT-15 colon; 6.24 µM and 9.38 µM in the assay with EKVX NSCLC; 11.2 µM and 14 µM in the assay on UACC-257 melanoma; 18.6 µM and 7.37 µM in the assay with SF-295 CNS. Moreover, the GI50 was 0.58 µM and 1.5 µM in the assay with SF-268 CNS; 6.32 µM and 2.35 µM in the assay with SF-295 CNS.
Turning to `COc1ccc(-n2cc(-c3cc(OC)c(OC)c(OC)c3)c(C(=O)C(F)(F)F)c2C)cc1`, the GI50 was 3.81 µM with T-47D breast; 56.2 µM in the assay with BT-549 breast; 6.93 µM in the assay with HCT-116 colon; over 100 µM in the assay on SNB-19 CNS; over 100 µM in the assay on RXF 393 renal; 99.5 µM in the assay on SF-268 CNS. The GI50 was 59.4 µM in the assay with HCT-15 colon, 13.9 µM in the assay on EKVX NSCLC, 15.7 µM in the assay with UACC-257 melanoma and over 100 µM with SF-295 CNS. The TGI with T-47D breast, in the assay on BT-549 breast, in the assay on HCT-116 colon, with SNB-19 CNS, in the assay on RXF 393 renal and in the assay with SF-268 CNS was over 100 µM each time. Also, the TGI with HCT-15 colon, in the assay with EKVX NSCLC, with UACC-257 melanoma and with SF-295 CNS was over 100 µM in each case.
With `CS(=O)(=O)Nc1ccc2c(c1)oc(=O)c1ccccc12`, the TGI in the assay on T-47D breast, with BT-549 breast, in the assay with HCT-116 colon, in the assay with SNB-19 CNS, in the assay with RXF 393 renal and with SF-268 CNS was over 100 µM each time. Besides, the TGI in the assay on HCT-15 colon, with EKVX NSCLC, with UACC-257 melanoma and with SF-295 CNS was over 100 µM throughout.
Turning to `CCN(CC)CCOc1ccc(-c2nc3cc(Cl)ccc3s2)cc1`, the GI50 was 1.5 µM with T-47D breast; 1.83 µM in the assay on BT-549 breast; 1.25 µM in the assay on HCT-116 colon; 2.26 µM in the assay with SNB-19 CNS; 1.01 µM in the assay with RXF 393 renal; 1.19 µM in the assay with HCT-15 colon. Also, the values for the GI50 in the assay with UACC-257 melanoma and in the assay on SF-295 CNS were 1.78 µM and 1.38 µM, respectively. In addition, the TGI in the assay with T-47D breast is 4.11 µM; in the assay on BT-549 breast, 5.73 µM; in the assay on HCT-116 colon, 2.5 µM; in the assay on SNB-19 CNS, 5.36 µM; in the assay with RXF 393 renal, 2.77 µM; in the assay with HCT-15 colon it was 2.42 µM. In addition, the TGI came to 3.62 µM with UACC-257 melanoma and 2.77 µM with SF-295 CNS.
For the compound `COc1cc(N(CCC#N)CCC#N)ccc1/C(N=Nc1ccc([N+](=O)[O-])cc1)=N/NC(=O)c1cc(Br)ccc1O`, the GI50 is 34.6 µg/mL in the assay on T-47D breast; 53 µg/mL with BT-549 breast; 29.9 µg/mL with HCT-116 colon; 58.5 µg/mL in the assay with SNB-19 CNS; 30.3 µg/mL in the assay with RXF 393 renal; 19.3 µg/mL with SF-268 CNS. In addition, the GI50 is 25.6 µg/mL in the assay with HCT-15 colon, 42.8 µg/mL with EKVX NSCLC, 52.3 µg/mL in the assay with UACC-257 melanoma and 29.9 µg/mL in the assay on SF-295 CNS. Besides, the TGI was 87 µg/mL with T-47D breast; over 150 µg/mL in the assay on BT-549 breast; 91.9 µg/mL in the assay with HCT-116 colon; over 150 µg/mL with SNB-19 CNS; 83.8 µg/mL in the assay with RXF 393 renal; 78.7 µg/mL with SF-268 CNS. Further, the TGI was 68.2 µg/mL in the assay on HCT-15 colon, over 150 µg/mL in the assay with EKVX NSCLC, over 150 µg/mL with UACC-257 melanoma and 69.6 µg/mL in the assay on SF-295 CNS.
As for `CCN1CCN(C(c2ccc(C(F)(F)F)cc2)c2ccc3cccnc3c2O)CC1` (stereo not given), the GI50 in the assay with T-47D breast is 4.19 µM; in the assay with BT-549 breast it was 1.4 µM; in the assay on HCT-116 colon it was 3.06 µM; in the assay with SNB-19 CNS, 1.51 µM; in the assay with RXF 393 renal, 3.2 µM; in the assay on SF-268 CNS, 1.36 µM. The GI50 in the assay with HCT-15 colon was 3.74 µM; in the assay on UACC-257 melanoma, 2.06 µM; with SF-295 CNS, 0.313 µM. The TGI with T-47D breast was determined as 15.2 µM; with BT-549 breast it was 11.6 µM; in the assay with HCT-116 colon, 13.5 µM; with SNB-19 CNS it was 19.8 µM; in the assay on RXF 393 renal, 16 µM; in the assay on SF-268 CNS, 12.8 µM. Also, the TGI in the assay with HCT-15 colon worked out at 17.6 µM; in the assay with UACC-257 melanoma, 6.69 µM; in the assay with SF-295 CNS it was 4.39 µM.
`CC(C)=CC/C=C(/C)[C@H]1CC[C@]2(C)[C@@H]1CC[C@@H]1[C@@]3(C)CCCNC(C)(C)[C@@H]3CC[C@]12C`: the GI50 is 2.09 µM in the assay with T-47D breast; 12.4 µM with BT-549 breast; 3.39 µM in the assay with SNB-19 CNS; 1.72 µM in the assay with RXF 393 renal; 3.82 µM in the assay on SF-268 CNS; 1.89 µM in the assay on HCT-15 colon. The GI50 in the assay with EKVX NSCLC was 10.6 µM; in the assay on UACC-257 melanoma, 3.05 µM; in the assay on SF-295 CNS it was 2 µM. The TGI in the assay with T-47D breast was determined as 5.03 µM; with BT-549 breast it was 32.5 µM; with SNB-19 CNS, 11.6 µM; in the assay on RXF 393 renal, 3.31 µM; with SF-268 CNS, 16.7 µM; with HCT-15 colon it was 3.56 µM. In addition, the TGI in the assay on EKVX NSCLC amounted to 28.4 µM; in the assay with UACC-257 melanoma, 11 µM; in the assay on SF-295 CNS, 3.83 µM.
On to `S=C1NC2(CCCCCC2)NN1c1ccccc1`, for which the TGI in the assay on T-47D breast, in the assay with BT-549 breast, in the assay with SNB-19 CNS, in the assay with SF-268 CNS, in the assay with HCT-15 colon and with EKVX NSCLC was over 100 µM each time. The TGI with UACC-257 melanoma and with SF-295 CNS was over 100 µM each time.
Turning to `CN1CCN(CCOc2ccc(-c3cnc4c(-c5ccccc5F)cnn4c3)cc2)CC1`, the GI50 is 1.38 µM in the assay with T-47D breast; 1.9 µM with BT-549 breast; 1.73 µM in the assay on SNB-19 CNS; 1.72 µM in the assay with RXF 393 renal; 2.04 µM with SF-268 CNS; 1.25 µM in the assay on HCT-15 colon. The GI50 in the assay with EKVX NSCLC is 1.65 µM; in the assay on UACC-257 melanoma it was 1.87 µM; in the assay on SF-295 CNS, 1.76 µM. For the same compound, the TGI is 3.93 µM in the assay with T-47D breast; 3.77 µM with BT-549 breast; 3.26 µM in the assay with SNB-19 CNS; 3.29 µM with RXF 393 renal; 4.73 µM in the assay with SF-268 CNS; 2.63 µM in the assay with HCT-15 colon. Also, the values for the TGI in the assay with EKVX NSCLC, with UACC-257 melanoma and in the assay on SF-295 CNS were 3.37 µM, 3.41 µM and 3.2 µM, respectively.
